Assay results taken from paper PMC8113490, “Androgen signaling uses a writer and a reader of ADP-ribosylation to regulate protein complex assembly” (Nature Communications, 2021).

Key:
[1] = target: T1, Parp7 (Homo sapiens, UniProt Q7Z3E1); assay: in vitro ADP-ribosylation of AR and automodification with recombinant Parp7 and NAD+; type: biochemical
T1 construct: gene TIPARP; N-terminal His6-T7-tagged Parp7 expressed in Sf21 insect cells
T1 sequence (Q7Z3E1 1-657): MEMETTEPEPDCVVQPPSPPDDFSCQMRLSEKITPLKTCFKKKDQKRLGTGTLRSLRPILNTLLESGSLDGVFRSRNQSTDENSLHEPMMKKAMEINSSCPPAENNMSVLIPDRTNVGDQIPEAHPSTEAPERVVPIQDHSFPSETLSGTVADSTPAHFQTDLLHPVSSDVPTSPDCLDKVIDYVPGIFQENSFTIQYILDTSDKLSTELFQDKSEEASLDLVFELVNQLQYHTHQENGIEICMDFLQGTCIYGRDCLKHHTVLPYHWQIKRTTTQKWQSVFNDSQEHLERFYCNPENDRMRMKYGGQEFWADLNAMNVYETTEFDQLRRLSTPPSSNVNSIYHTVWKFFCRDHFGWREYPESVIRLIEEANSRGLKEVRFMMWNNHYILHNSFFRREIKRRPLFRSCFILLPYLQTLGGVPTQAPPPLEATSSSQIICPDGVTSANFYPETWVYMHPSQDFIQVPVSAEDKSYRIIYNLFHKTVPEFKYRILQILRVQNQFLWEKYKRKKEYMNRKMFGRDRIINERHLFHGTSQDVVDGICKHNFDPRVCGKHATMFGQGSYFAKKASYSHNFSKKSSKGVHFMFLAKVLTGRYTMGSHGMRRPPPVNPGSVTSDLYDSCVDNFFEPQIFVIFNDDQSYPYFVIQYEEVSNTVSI

[2] = target: Flag-AR 4CG (C125, 290, 327, 406G) (human) (UniProt P10275); assay: co-IP; AR IP from PC3M/HA-Parp7 cells stably expressing Flag-tagged WT AR or Cys-to-Gly mutants, treated +R1881; probed for AR, ADP-ribosylation, Dtx3L and Parp9
Sequence of Flag-AR 4CG (C125, 290, 327, 406G) (human) (P10275 whole entry C125G/C290G/C327G/C406G): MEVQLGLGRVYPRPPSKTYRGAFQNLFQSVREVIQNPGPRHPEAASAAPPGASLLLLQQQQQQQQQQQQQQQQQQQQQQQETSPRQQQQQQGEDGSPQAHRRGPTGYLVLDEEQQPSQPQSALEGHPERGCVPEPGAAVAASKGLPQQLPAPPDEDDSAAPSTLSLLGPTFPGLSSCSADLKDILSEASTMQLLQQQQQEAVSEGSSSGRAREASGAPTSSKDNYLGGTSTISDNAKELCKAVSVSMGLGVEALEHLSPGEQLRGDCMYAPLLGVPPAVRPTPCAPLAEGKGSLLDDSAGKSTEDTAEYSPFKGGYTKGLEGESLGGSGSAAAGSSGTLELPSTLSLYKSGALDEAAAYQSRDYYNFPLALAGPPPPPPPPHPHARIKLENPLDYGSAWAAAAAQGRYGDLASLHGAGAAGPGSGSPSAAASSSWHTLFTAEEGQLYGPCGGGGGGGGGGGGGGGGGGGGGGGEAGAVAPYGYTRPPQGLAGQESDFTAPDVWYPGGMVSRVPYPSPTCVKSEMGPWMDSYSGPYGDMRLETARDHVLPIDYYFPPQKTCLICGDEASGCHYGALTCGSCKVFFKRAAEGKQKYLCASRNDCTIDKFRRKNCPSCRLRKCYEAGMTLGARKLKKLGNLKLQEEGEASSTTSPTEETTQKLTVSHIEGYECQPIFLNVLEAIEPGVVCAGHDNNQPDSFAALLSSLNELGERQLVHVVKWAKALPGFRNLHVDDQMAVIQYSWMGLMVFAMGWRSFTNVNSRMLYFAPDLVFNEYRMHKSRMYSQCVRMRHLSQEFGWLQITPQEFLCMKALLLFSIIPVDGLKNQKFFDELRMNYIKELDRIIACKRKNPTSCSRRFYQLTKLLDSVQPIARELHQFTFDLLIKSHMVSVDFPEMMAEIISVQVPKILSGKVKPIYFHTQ

| complex formation, percent of WT [2] | Compound | in vitro ADP-ribosylation of AR and automodification with recombinant Parp7 and [1] |
| --- | --- | --- |
| – | NC(=O)c1ccc[n+]([C@@H]2O[C@H](COP(=O)([O-])OP(=O)(O)OC[C@H]3O[C@@H](n4cnc5c(N)ncnc54)[C@H](O)[C@@H]3O)[C@@H](O)[C@H]2O)c1 [NAD^+] | Combining recombinant Parp7, NAD^+, and bead-immobilized AR reconstituted ADP-ribosylation |
| 50 % of WT | Parp9 (enzyme) | – |
